# According to ChEMBL document CHEMBL1201862, “PubChem BioAssay data set” (2004):
#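 Values below derive from 48-hour exposures of cells grown in 96-well plates, with endpoints linearly interpolated between the two concentrations bracketing the appropriate inhibition level. Abbreviation: GI50, concentration required for 50% inhibition of growth.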 Calls of active or inactive are those of the source. Cut-off read from the data, not from the text of the source: active = GI50 up to about 1.1 µM and inactive = higher.
# Experiments:
# Experiment in all cases: NCI anticancer screen, dose series, 48 h
# HCT-15 = test system: HCT-15
# SNB-19 = test system: SNB-19
# 786-0 = test system: 786-0
# SF-539 = test system: SF-539
# NCI-H226 = test system: NCI-H226
# HOP-62 = test system: HOP-62
# SF-268 = test system: SF-268
# Malme-3M = test system: Malme-3M
# EKVX = test system: EKVX
# M14 = test system: M14
# OVCAR-8 = test system: OVCAR-8
# RXF 393 = test system: RXF 393
# UO-31 = test system: UO-31
Structure (SMILES),GI50 (HCT-15) [µM],GI50 (SNB-19),GI50 (786-0),GI50 (SF-539),GI50 (NCI-H226),GI50 (HOP-62),GI50 (SF-268),GI50 (Malme-3M),GI50 (EKVX),GI50 (M14),GI50 (OVCAR-8),GI50 (RXF 393),GI50 (UO-31)
c1ccc2c(c1)CCc1c(-c3ccncc3)n[nH]c1-2,32.1,27.7 µM (inactive),37.8 µM (inactive),24.8 µM (inactive),23 µM (inactive),28.4 µM (inactive),28.8 µM (inactive),33.5 µM (inactive),6.14 µM (inactive),22.8 µM (inactive),29.4 µM (inactive),,
O=C(O)C1=C(C(=O)Nc2ccccc2)C2C=CC1C2 (stereo unspecified),> 100,> 100 µM (inactive),> 100 µM (inactive),> 100 µM (inactive),,> 100 µM (inactive),> 100 µM (inactive),> 100 µM (inactive),> 100 µM (inactive),> 100 µM (inactive),> 100 µM (inactive),> 100 µM (inactive),> 100 µM (inactive)
COc1cc2cc3c4c(cc(OC)c(OC)c4c2cc1OC)CCN3C(=O)N(C)C,> 100,> 100 µM (inactive),44.5 µM (inactive),34.5 µM (inactive),56.2 µM (inactive),72.1 µM (inactive),> 100 µM (inactive),59.3 µM (inactive),> 100 µM (inactive),> 10 µM (inactive),> 100 µM (inactive),> 100 µM (inactive),> 100 µM (inactive)
CCOC(=O)c1c2cccccc2n2c(=O)cc(C)nc12,> 100,> 100 µM (inactive),> 100 µM (inactive),> 100 µM (inactive),> 100 µM (inactive),> 100 µM (inactive),69.8 µM (inactive),,> 100 µM (inactive),> 100 µM (inactive),> 100 µM (inactive),> 100 µM (inactive),> 100 µM (inactive)
O=C(CC(=O)c1ccccc1)C(=O)Nc1ccc(Cl)cc1,> 42.9,> 100 µM (inactive),> 67.6 µM (inactive),> 100 µM (inactive),> 100 µM (inactive),> 100 µM (inactive),> 100 µM (inactive),> 100 µM (inactive),> 100 µM (inactive),> 100 µM (inactive),> 100 µM (inactive),> 100 µM (inactive),> 100 µM (inactive)
O=C1CNS(=O)(=O)N1,,> 100 µM (inactive),> 100 µM (inactive),> 100 µM (inactive),14.5 µM (inactive),> 100 µM (inactive),> 100 µM (inactive),> 100 µM (inactive),> 100 µM (inactive),> 100 µM (inactive),> 100 µM (inactive),,> 100 µM (inactive)
COc1cc(OC(=O)c2c(O)cc(O)c(O)c2C)cc(C)c1C(=O)Oc1cc(C)c(C(=O)O)c(O)c1,> 100,,> 100 µM (inactive),> 100 µM (inactive),> 100 µM (inactive),> 100 µM (inactive),> 100 µM (inactive),> 100 µM (inactive),> 100 µM (inactive),> 100 µM (inactive),> 100 µM (inactive),> 100 µM (inactive),> 100 µM (inactive)
Cc1ccc(NC(=O)CC2SC(Nc3cccc(Cl)c3C)=NC2=O)cc1 (stereo unspecified),76.9,40.4 µM (inactive),> 100 µM (inactive),53.1 µM (inactive),,> 100 µM (inactive),37 µM (inactive),52.4 µM (inactive),70 µM (inactive),38.8 µM (inactive),40.6 µM (inactive),,22.6 µM (inactive)
CC1CCCC(C(=O)/C(=C/c2cccc(Cl)c2)C(=O)C(=O)O)C1 (stereo unspecified),13.8,33.8 µM (inactive),17.9 µM (inactive),27.5 µM (inactive),> 100 µM (inactive),> 100 µM (inactive),42.1 µM (inactive),> 100 µM (inactive),47.1 µM (inactive),29.7 µM (inactive),20.3 µM (inactive),,61.2 µM (inactive)
COc1ccccc1NC(=O)C1=C(C)NC(C)=C(C(=O)Nc2ccccc2OC)C1/C=C/c1ccccc1,> 100,> 100 µM (inactive),> 100 µM (inactive),> 100 µM (inactive),> 100 µM (inactive),> 100 µM (inactive),92.9 µM (inactive),> 100 µM (inactive),89.3 µM (inactive),> 100 µM (inactive),> 100 µM (inactive),,> 100 µM (inactive)
Cc1nc(=O)n2c(C)n[nH]c2c1C(=O)Nc1cc(Cl)cc(Cl)c1,19.3,,28.4 µM (inactive),21.8 µM (inactive),24.8 µM (inactive),25.6 µM (inactive),33.3 µM (inactive),30.9 µM (inactive),31.1 µM (inactive),35.6 µM (inactive),45.5 µM (inactive),11.9 µM (inactive),20.4 µM (inactive)
COc1ccc(OC)c2c1C(=O)C1CC1(Br)C2=O (stereo unspecified),> 100,> 100 µM (inactive),> 100 µM (inactive),> 100 µM (inactive),,> 100 µM (inactive),> 100 µM (inactive),> 100 µM (inactive),73.1 µM (inactive),> 100 µM (inactive),> 100 µM (inactive),,> 100 µM (inactive)
OCCC1(O)CCC(O)CC1 (stereo unspecified),> 100,> 100 µM (inactive),> 100 µM (inactive),> 100 µM (inactive),> 100 µM (inactive),> 100 µM (inactive),> 100 µM (inactive),> 100 µM (inactive),> 100 µM (inactive),> 100 µM (inactive),> 100 µM (inactive),,> 100 µM (inactive)
O=C(CC(=O)N1N=C(n2ccc3ccccc32)CC1c1ccccc1)Nc1ccc(Cl)cc1 (stereo unspecified),> 100,> 100 µM (inactive),> 100 µM (inactive),8.75 µM (inactive),,> 100 µM (inactive),> 100 µM (inactive),> 100 µM (inactive),> 100 µM (inactive),> 100 µM (inactive),> 100 µM (inactive),> 100 µM (inactive),> 100 µM (inactive)
C[C@]12CCCC(=O)C1(O)C[C@H](C(=O)O)CC2 (stereo partly specified),> 100,> 100 µM (inactive),> 100 µM (inactive),> 100 µM (inactive),> 100 µM (inactive),> 100 µM (inactive),> 100 µM (inactive),> 100 µM (inactive),,> 100 µM (inactive),> 100 µM (inactive),,> 100 µM (inactive)
COc1cccc2c1C(=O)c1c(O)c3c(c(O)c1C2=O)C[C@@](O)(C(=O)CO)CC3OC1CC(N(C)CCOCC(OC(C)=O)OC(C)=O)C(O)C(C)O1 (stereo partly specified),,> 0.01 µM (active),> 0.01 µM (active),> 0.01 µM (active),> 0.01 µM (active),> 0.01 µM (active),> 0.01 µM (active),> 0.01 µM (active),> 0.01 µM (active),> 0.01 µM (active),> 0.01 µM (active),> 0.01 µM (active),> 0.01 µM (active)
COc1cc(C2Oc3cc(-c4oc5cc(O)cc(O)c5c(=O)c4O)ccc3OC2CO)ccc1O (stereo unspecified) [DEHYDROSILYLBIN],9.31,7.43 µM (inactive),8.55 µM (inactive),4.24 µM (inactive),8.51 µM (inactive),11.2 µM (inactive),7.46 µM (inactive),22.8 µM (inactive),,12.4 µM (inactive),30.1 µM (inactive),2.31 µM (inactive),2.64 µM (inactive)
